Holding throughout (format): in vivo
Assay [1] deals with C57BL/6 mice. Description: Fatty liver disease caused by non-chemical injury (STZ + high-fat diet Metabolic Syndrome model), histology and blood/plasma biochemistry. Conditions: 48 mg/kg oral twice a day. The source says:
(§1) In order to simulate an unhealthy diet tendency in humans, such as excess consumption of high caloric food, the example constructs an animal model using […] fed a high fat diet to evaluate the effects of chronic liver injury.
(§2) The assay simulates liver disease caused by a high fat diet through a “Metabolic Syndrome” model. That is, the model is different from conventional chemical induced models caused by toxic components such as CCl4. This model is distinguishable from the models caused by virus or alcohol.
(§3) The establishment of a long term high-fat diet is described as follows: First, the C57BL/6 mice were obtained from Charles River Laboratories Japan (Kanagawa, Japan). Animals were housed under specific-pathogen-free (SPF) conditions. The liver injury was developed in 18 male mice by subcutaneous injection of Streptozotocin (STZ) 2 days after birth (day 2). After 4 weeks, a high-fat commercial rodent diet ad libitum (CLEA JAPAN) were supplied. These mice were randomized into 3 groups before the treatment. The test compound was administered in a volume of 10 ml/kg twice a day for three weeks. In the control group (group A), six […] were fed with vehicle (corn oil from Sigma Chemical Co.) via intubation. Six mice in group B were orally administered vehicle and the test compound at a dose of 48 mg/kg twice a day (96 mg/kg per day).
(§4) (1) HE Staining. The HE staining method is performed as follows: Liver slices are cut from the livers' left side, embedded in Tissue-Tek® OCT™ Compounds (Sakura Finetek, Japan), snap frozen in liquid nitrogen, and stored at −80° C. 5 μm sections are cut, air-dried, fixed in acetone, air dried again and finally washed with phosphate buffered saline (PBS). Then, in the hematoxylin and eosin staining method, liver sections will be prefixed in a Bouin solution (formalin-acetic acid) for one week and then stained with Lillie-Mayer's Hematoxylin (Muto Pure Chemicals, Japan) and eosin solution (Wako, Japan) to visualize the lipid deposition, inflammations, cell necrosis and fibrosis, or stained with Masson's trichromic solution to visualize extra cellular matrix and collagen fibers of liver fibrosis development.
(§5) (2) Sirius Red Staining. The Sirius Red staining method is performed as follows: Liver slices are cut from the livers' left side, embedded in Tissue-Tek® OCT™ Compounds (Sakura Finetek, Japan), snap frozen in liquid nitrogen, and stored at −80° C. 5 μm sections are cut, air-dried, fixed in acetone, air dried again and finally washed with phosphate buffered saline (PBS). Then, liver sections are stained with a Picro-Sirius Red Solution (Waldeck GmbH & KG, Germany) to observe collagen deposition.
(§6) (3) Immunohistochemistry of Collagen Type 3. The immunohistochemistry assay for collagen Type 3 is performed as follows: Liver slices are cut from the livers' left side, embedded in Tissue-Tek® OCT™ Compounds (Sakura Finetek, Japan), snap frozen in liquid nitrogen, and stored at −80° C. 5 μm sections are cut, air-dried, fixed in acetone, air dried again and finally washed with phosphate buffered saline (PBS). For immunohistochemistry, endogenous peroxidase activity will be blocked by using 0.03% H2O2 for 5 minutes, followed by incubation with Block Ace (Dainippon Sumitomo Pharm, Japan) for 10 minutes. The sections will be incubated with the optimal dilution of anti-Type 3 collagen antibody overnight at 4° C. After incubation with an appropriate secondary antibody, the substrate reactions are performed using DAB/H2O2 solution (Nichirei, Japan).
(§7) (1) Whole Blood Glucose. Blood samples were collected in heparinized syringes (Novo-Heparin 5,000 units/5 ml, Mochida Pharmaceutical, Japan) by cardiac puncture, kept on ice and centrifuged at 1,000×g at 4° C. for 15 minutes. The supernatant was collected and stored at −80° C. until use. Blood glucose was measured in whole blood samples using G Checker (Sanko Junyaku Co. Ltd., Japan). […]

For assay [2], the system named is C57BL/6 mice. Kind of assay: Reduction of fatty liver condition by Compound 1 with ergosterol versus Compound 1 alone (STZ + high-fat diet model), liver histology. As to conditions: Compound 1 48 mg/kg twice a day oral, with or without ergosterol 12 mg/kg twice a day.
Assay [3] relates to C57BL/6 mice. Description: Fibrosis of steatohepatitis caused by non-chemical injury (STZ + high-fat diet model), histology and blood/plasma biochemistry.
From the text: as §1, §2, §3, §4, §5, §6, §7

The text below walks through data of patent US10959963B2, “Method for the treatment of fatty liver disease” (Golden Biotechnology Corporation, priority 2013, dated 2021).

With `COC1=C(OC)C(O)C(C/C=C(\C)CC/C=C(\C)CCC=C(C)C)C(C)C1=O` (stereo not shown) [Compound 1, 4-hydroxy-2,3-dimethoxy-6-methyl-5 (3,7,11-trimethyl-dodeca-2,6,10-trienyl)-cyclohex-2-enone], the “collagen deposition around the central veins and the bile ducts, Sirius red staining” value in assay [1] (compared to vehicle Group A) and in assay [3] (compared to vehicle Group A) was “reduced” in each case. Also, the “collagen fibers in the sinusoidal area, collagen Type 3 immunostaining” value in assay [1] (compared to vehicle Group A) and in assay [3] (compared to vehicle Group A) was “tended to reduce the thickness and/or the length of the collagen fibers” throughout. For the same molecule, the results for the “infiltration of inflammatory cells, HE-stained liver sections” value in assay [1] (compared to vehicle Group A) and in assay [2] (vs vehicle) were “tended to decrease the infiltration of inflammatory cells” and “did not affect the infiltration of inflammatory cells”, respectively. In addition, the “macro-vesicular fat deposition, HE-stained liver sections” value in assay [1] (compared to vehicle Group A) and in assay [3] (compared to vehicle Group A) was “tended to decrease the macro-vesicular fat deposition” throughout. The entries for the “plasma ALT level” value in assay [1] (vehicle Group A 64±64) and in assay [3] (vehicle Group A 47±22) were 34±10 U/L and 38±11 U/L, respectively. Also, the “plasma AST level” value in assay [1] (vehicle Group A 202±177) was found to be 141±35 U/L; in assay [3] (vehicle Group A 143±42, change not significant), 167±87 U/L. Also, the entries for the “whole blood glucose level” value in assay [1] (vehicle Group A 636±137) and in assay [3] (vehicle Group A 728±109) were 580 ± 122 mg/dL and 566 ± 65 mg/dL, respectively. Moreover, the “plasma triglyceride (TG)” value came to 229 ± 144 mg/dL in assay [1] (vehicle Group A 643±402) and 704 ± 450 mg/dL in assay [3] (vehicle Group A 758±877). For the same molecule, the “collagen deposition, Sirius red staining” value in assay [2] (vs control group) is given as “tended only slightly to decrease the collagen deposition”. Besides, the “collagen deposition (thickness of collagen fibers in the sinusoidal area), collagen Type 3 immunostaining” value in assay [2] (vs vehicle) was “tended to reduce the collagen deposition”. Further, the “macro vesicular fat deposition, HE-stained liver sections” value in assay [2] (vs vehicle) is on record as “tended to decrease the macro vesicular fat deposition”.
